Measured values reported in ChEMBL document CHEMBL1126122, “Non-prostanoid thromboxane A2 receptor antagonists with a dibenzoxepin ring system. 2” (J Med Chem, 1992).
pKi: −log10 of the molar value.

Columns and labels:
[1] = species: Cavia porcellus; experiment: Inhibitory effect on the U-46619 induced platelet aggregation was determined ex vivo in the guinea pig; assay type: functional
[2] = Binding affinity at TXA2/PGH2 receptor by displacement of [3H]U-46619 from human platelets
[3] = species: Cavia porcellus; experiment: Compound was tested for its binding affinity at TXA2/PGH2 receptor by measuring its ability to displace [3H]U-46619 from guinea pig platelets at 0.1 uM
[4] = Binding affinity at TXA2/PGH2 receptor by measuring its ability to displace [3H]U-46619 from guinea pig platelets
[5] = Binding affinity at Thromboxane A2/ Prostaglandin H2 receptor by measuring its ability to displace [3H]U-46619 from guinea pig platelets at a compound concentration of 0.1 uM; details: Cavia porcellus

Compound | pKi [2] | also measured
O=C(O)Cc1ccc(CCNS(=O)(=O)c2ccc(Cl)cc2)cc1 [DALTROBAN] |  | Aggregation [1]: 0%
O=C(O)c1ccc2c(c1)/C(=C/Cn1cnc3cc4c(cc31)OCO4)c1ccccc1CO2 | 8.42 | 
Cc1cccc2c1ncn2C/C=C1\c2ccccc2COc2ccc(C(=O)O)cc21 | 7.42 | 
COc1cc2ncn(C/C=C3\c4ccccc4COc4ccc(C(=O)O)cc43)c2cc1OC | 8.66 | 
COc1ccc2c(c1)ncn2C/C=C1\c2ccccc2COc2ccc(C(=O)O)cc21 | 7.77 | 
O=C(O)c1ccc2c(c1)/C(=C/Cn1cnc3cc(F)ccc31)c1ccccc1CO2 | 7.82 | 
Cc1ccc2c(c1)ncn2C/C=C1\c2ccccc2COc2ccc(C(=O)O)cc21 | 6.96 | 
COc1cc(OC)c2ncn(C/C=C3\c4ccccc4COc4ccc(C(=O)O)cc43)c2c1 | 8.04 | 
COc1cc(OC)c2c(c1)ncn2C/C=C1\c2ccccc2COc2ccc(C(=O)O)cc21 | 8.17 | 
COC(=O)c1ccc2c(c1)/C(=C/Cn1cnc3cc(C)c(C)cc31)c1ccccc1CO2 |  | inhibition [3]: 31%
O=C(O)c1ccc2c(c1)/C(=C/Cn1cnc3ccc(Cl)cc31)c1ccccc1CO2 | 7.72 | 
O=C(O)c1ccc2c(c1)/C(=C/CNS(=O)(=O)c1ccccc1)c1ccccc1CO2 |  | Inhibition of U-46619-induced platelet aggregation [1]: 25%
Cc1ccc2ncn(C/C=C3\c4ccccc4COc4ccc(C(=O)O)cc43)c2c1 | 7.92 | 
O=C(O)c1ccc2c(c1)/C(=C/Cn1cnc3cc(C(=O)NCc4ccccc4)ccc31)c1ccccc1CO2 | 8.13 | 
O=C(O)c1ccc2c(c1)/C(=C/Cn1cnc3cc([N+](=O)[O-])ccc31)c1ccccc1CO2 | 8.04 | 
Cc1ccc2c(ncn2C/C=C2\c3ccccc3COc3ccc(C(=O)O)cc32)c1C | 7.34 | 
Cc1cc(C)c2ncn(C/C=C3\c4ccccc4COc4ccc(C(=O)O)cc43)c2c1 | 8.12 | 
Cc1cc2ncn(C/C=C3\c4ccccc4COc4ccc(C(=O)O)cc43)c2cc1C | 8.92 | 

Compound | pKi [2] | also measured
COc1ccc2ncn(C/C=C3\c4ccccc4COc4ccc(C(=O)O)cc43)c2c1 | 8.13 | 
Cc1cccc2ncn(C/C=C3\c4ccccc4COc4ccc(C(=O)O)cc43)c12 | 8.10 | 
O=C(O)c1ccc2c(c1)/C(=C/Cn1nnc3ccccc31)c1ccccc1CO2 |  | inhibition [3]: 35%
O=C(O)c1ccc2c(c1)/C(=C/Cn1cnc3ccc(C(=O)NCc4ccccc4)cc31)c1ccccc1CO2 | 7.85 | 
O=C(O)c1ccc2c(c1)C(SCCNS(=O)(=O)c1ccccc1)c1ccccc1CO2 (stereo not drawn) |  | Inhibition of U-46619-induced platelet aggregation [1]: 11.8%; pKi [4]: 7.49
O=C(O)c1ccc2c(c1)C(SCCn1cnc3ccccc31)c1ccccc1CO2 (stereo not drawn) |  | inhibition [3]: 9%
Cc1cc2ncn(C/C=C3\c4ccccc4COc4ccc(C(=O)N5CCOCC5)cc43)c2cc1C |  | inhibition [3]: -4%
O=C(O)c1ccc2c(c1)/C(=C/Cn1cnc3cc(C(F)(F)F)ccc31)c1ccccc1CO2 | 7.07 | 
O=C(O)c1ccc2c(c1)/C(=C\CCNS(=O)(=O)c1ccccc1)c1ccccc1CO2 |  | Inhibition of U-46619-induced platelet aggregation [1]: 59.3%; inhibition [3]: 50%
CSc1nc2ccccc2n1C/C=C1\c2ccccc2COc2ccc(C(=O)O)cc21 |  | inhibition [5]: 11%
O=C(O)c1ccc2c(c1)/C(=C/Cn1cnc3cnccc31)c1ccccc1CO2 |  | inhibition [3]: -6%
O=C(O)c1ccc2c(c1)/C(=C/Cn1cnc3ccc([N+](=O)[O-])cc31)c1ccccc1CO2 | 8.04 | 
Cc1nc2ccccc2n1C/C=C1\c2ccccc2COc2ccc(C(=O)O)cc21 |  | inhibition [3]: 4%
O=C(O)c1ccc2c(c1)/C(=C/CCNS(=O)(=O)c1ccccc1)c1ccccc1CO2 |  | inhibition ([4]; Cavia porcellus, concentration not given here): -6%
O=C([O-])c1ccc2c(c1)/C(=C\Cn1cnc3ccccc31)c1ccccc1CO2.[Na+] |  | Inhibition of U-46619-induced platelet aggregation [1]: 0%
Cc1cc2ncn(C/C=C3\c4ccccc4COc4ccc(C(=O)Nc5ccccc5C(=O)O)cc43)c2cc1C |  | inhibition [3]: 6%
O=C(O)c1ccc2c(c1)/C(=C/Cn1cnc3cc(Cl)ccc31)c1ccccc1CO2 | 7.96 | 
O=C(O)c1ccc2c(c1)C(SCCc1nc3ccccc3[nH]1)c1ccccc1CO2 (stereo not drawn) |  | Inhibition of U-46619-induced platelet aggregation [1]: 66.3%
